Patent US10174035B2, “6-morpholinyl-2-pyrazolyl-9H-purine derivatives and their use as PI3K inhibitors” (Daiichi Sankyo Company, Limited, priority 2015, dated 2019)

What follows are molecules tested against recombinant PI3K δ enzyme (Homo sapiens (Human), UniProt O00329) (assay: In vitro enzyme assay (Kinase-Glo luminescent kinase assay), PI3Kδ).
Format: biochemical
In short: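 Each recombinant human PI3K isoform at 2.29 μg/mL with 60 μM PIP2 and 10 μM ATP in HEPES pH 7.4, NaCl, CHAPS, MgCl2, DTT, 2 hours at room temperature. Remaining ATP read by Kinase-Glo luminescence relative to no-enzyme blanks.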

Chain of recombinant PI3K δ enzyme (O00329 whole entry, species assumed): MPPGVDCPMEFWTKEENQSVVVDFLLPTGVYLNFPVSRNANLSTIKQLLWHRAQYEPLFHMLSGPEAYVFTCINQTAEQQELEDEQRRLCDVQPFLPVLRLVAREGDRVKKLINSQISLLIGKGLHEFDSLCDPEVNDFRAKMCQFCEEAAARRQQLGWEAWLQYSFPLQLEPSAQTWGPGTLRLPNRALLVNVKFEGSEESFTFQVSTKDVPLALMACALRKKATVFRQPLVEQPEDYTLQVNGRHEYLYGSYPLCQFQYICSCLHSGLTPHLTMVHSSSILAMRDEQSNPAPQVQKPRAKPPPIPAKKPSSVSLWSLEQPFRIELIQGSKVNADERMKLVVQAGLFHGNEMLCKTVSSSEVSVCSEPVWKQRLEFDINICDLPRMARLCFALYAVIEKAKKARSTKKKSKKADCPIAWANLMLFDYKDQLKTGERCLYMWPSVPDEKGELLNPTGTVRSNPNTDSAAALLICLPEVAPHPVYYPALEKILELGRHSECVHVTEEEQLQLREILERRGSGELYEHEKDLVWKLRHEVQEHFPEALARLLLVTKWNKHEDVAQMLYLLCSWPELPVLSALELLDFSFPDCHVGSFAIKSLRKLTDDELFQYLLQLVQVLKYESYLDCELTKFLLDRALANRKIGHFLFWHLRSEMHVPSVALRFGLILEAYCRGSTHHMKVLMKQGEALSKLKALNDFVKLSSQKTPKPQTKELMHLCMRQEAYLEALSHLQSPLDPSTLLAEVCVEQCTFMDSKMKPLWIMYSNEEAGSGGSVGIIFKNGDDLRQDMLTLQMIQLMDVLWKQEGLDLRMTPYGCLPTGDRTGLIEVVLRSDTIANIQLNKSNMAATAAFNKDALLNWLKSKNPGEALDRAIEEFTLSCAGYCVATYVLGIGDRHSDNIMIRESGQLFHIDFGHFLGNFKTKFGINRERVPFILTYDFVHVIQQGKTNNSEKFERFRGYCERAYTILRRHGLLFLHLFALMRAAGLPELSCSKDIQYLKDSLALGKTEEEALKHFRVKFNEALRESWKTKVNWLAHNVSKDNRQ
Chain of recombinant PI3K δ enzyme (P27986 whole entry partner, species assumed): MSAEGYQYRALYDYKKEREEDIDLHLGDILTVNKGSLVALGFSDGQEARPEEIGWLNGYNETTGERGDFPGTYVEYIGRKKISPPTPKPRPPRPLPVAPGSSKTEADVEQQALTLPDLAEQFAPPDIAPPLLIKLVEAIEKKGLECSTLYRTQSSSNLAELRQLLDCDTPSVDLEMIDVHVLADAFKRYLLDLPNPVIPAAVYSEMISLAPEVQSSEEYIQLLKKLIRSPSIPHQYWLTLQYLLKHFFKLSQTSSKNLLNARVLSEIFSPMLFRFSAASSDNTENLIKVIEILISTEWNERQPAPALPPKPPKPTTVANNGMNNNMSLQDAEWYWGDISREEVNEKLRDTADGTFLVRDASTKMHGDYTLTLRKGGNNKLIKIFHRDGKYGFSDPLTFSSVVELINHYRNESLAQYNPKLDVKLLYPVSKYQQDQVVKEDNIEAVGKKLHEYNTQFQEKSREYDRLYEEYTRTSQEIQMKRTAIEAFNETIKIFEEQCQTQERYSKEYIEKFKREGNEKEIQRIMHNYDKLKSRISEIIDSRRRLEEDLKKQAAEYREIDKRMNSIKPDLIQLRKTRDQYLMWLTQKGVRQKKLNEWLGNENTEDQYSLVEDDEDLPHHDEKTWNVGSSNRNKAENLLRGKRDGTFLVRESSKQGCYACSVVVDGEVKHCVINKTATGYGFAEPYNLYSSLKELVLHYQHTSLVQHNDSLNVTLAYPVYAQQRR

SMILES	IC50 [nM]
Cn1cc(-c2nc(N3CCOCC3)c3nc(C(=O)N4CCS(=O)(=O)CC4)[nH]c3n2)cn1 [compound 15, (1,1-Dioxidothiomorpholin-4-yl)[2-(1-methyl-1H-pyrazol-4-yl)-6-(morpholin-4-yl)-9H-purin-8-yl]methanone]	123
Cn1cc(-c2nc(N3CCOCC3)c3nc(C(=O)N4CCn5ccnc5C4)[nH]c3n2)cn1 [compound 30, 5,6-Dihydroimidazo[1,2-a]pyrazin-7(8H)-yl[2-(1-methyl-1H-pyrazol-4-yl)-6-(morpholin-4-yl)-9H-purin-8-yl]methanone]	627
Cn1cc(-c2nc(N3CCOCC3)c3nc(C(=O)NCC(C)(C)CO)[nH]c3n2)cn1 [compound 76, N-(3-hydroxy-2,2-dimethylpropyl)-2-(1-methyl-1H-pyrazol-4-yl)-6-(morpholin-4-yl)-9H-purine-8-carboxamide]	101
CC(=O)N[C@H]1CCN(C(=O)c2nc3c(N4CCOCC4)nc(-c4cnn(C)c4)nc3[nH]2)C1 [compound 37, N-[(3S)-1-{[2-(1-methyl-1H-pyrazol-4-yl)-6-(morpholin-4-yl)-9H-purin-8-yl]carbonyl}pyrrolidin-3-yl]acetamide]	31
Cn1cc(-c2nc(N3CCOCC3)c3nc(C(=O)N4CCNC(=O)C4)[nH]c3n2)cn1 [compound 31, 4-{[2-(1-Methyl-1H-pyrazol-4-yl)-6-(morpholin-4-yl)-9H-purin-8-yl]carbonyl}piperazin-2-one]	465
Cn1cc(-c2nc(N3CCOCC3)c3nc(C(=O)N4CCC(N5CCOCC5)CC4)n(C)c3n2)cn1 [compound 23, [9-Methyl-2-(1-methyl-1H-pyrazol-4-yl)-6-(morpholin-4-yl)-9H-purin-8-yl][4-(morpholin-4-yl)piperidin-1-yl]methanone]	198
CN(C)C1CCN(C(=O)c2nc3c(N4CCOCC4)nc(-c4cnn(C)c4)nc3[nH]2)CC1 [compound 57, [4-(Dimethylamino)piperidin-1-yl][2-(1-methyl-1H-pyrazol-4-yl)-6-(morpholin-4-yl)-9H-purin-8-yl]methanone]	68
C[C@@H]1CN(C2CCN(C(=O)c3nc4c(N5CCOCC5)cc(-c5cnn(C)c5)nc4n3C)CC2)C[C@H](C)O1 [compound 110, {4-[cis-2,6-Dimethylmorpholin-4-yl]piperidin-1-yl}[3-methyl-5-(1-methyl-1H-pyrazol-4-yl)-7-(morpholin-4-yl)-3H-imidazo[4,5-b]pyridin-2-yl]methanone]	63
C[C@@H]1CN(C2CCN(C(=O)c3nc4c(N5CCOCC5)cc(-c5cnn(C)c5)nc4[nH]3)CC2)C[C@H](C)O1 [compound 109, {4-[cis-2,6-Dimethylmorpholin-4-yl]piperidin-1-yl}[5-(1-methyl-1H-pyrazol-4-yl)-7-(morpholin-4-yl)-3H-imidazo[4,5-b]pyridin-2-yl]methanone]	19
CN(C)[C@H]1CCN(C(=O)c2nc3c(N4CCOCC4)nc(-c4cnn(C)c4)nc3[nH]2)C1 [compound 44, [(3S)-3-(Dimethylamino)pyrrolidin-1-yl][2-(1-methyl-1H-pyrazol-4-yl)-6-(morpholin-4-yl)-9H-purin-8-yl]methanone]	76
Cn1cc(-c2cc(N3CCOCC3)c3nc(C(=O)N4CCC(C(C)(C)O)CC4)[nH]c3n2)cn1 [compound 117, [4-(2-Hydroxypropan-2-yl)piperidin-1-yl][5-(1-methyl-1H-pyrazol-4-yl)-7-(morpholin-4-yl)-3H-imidazo[4,5-b]pyridin-2-yl]methanone]	122
Cc1nn(C)cc1-c1nc2c(nc(C(=O)N3CCC(N4C[C@@H](C)O[C@@H](C)C4)CC3)n2C)c(N2CCOCC2)c1F [compound 112, {4-[cis-2,6-Dimethylmorpholin-4-yl]piperidin-1-yl}[5-(1,3-dimethyl-1H-pyrazol-4-yl)-6-fluoro-3-methyl-7-(morpholin-4-yl)-3H-imidazo[4,5-b]pyridin-2-yl]methanone]	15
Cn1cc(-c2nc(N3CCOCC3)c3nc(C(=O)N4CCC(N5CCOCC5)CC4)[nH]c3n2)c(C(F)(F)F)n1 [compound 17, {2-[1-Methyl-3-(trifluoromethyl)-1H-pyrazol-4-yl]-6-(morpholin-4-yl)-9H-purin-8-yl}[4-(morpholin-4-yl)piperidin-1-yl]methanone]	12
Cn1cc(-c2nc(N3CCOCC3)c3nc(C(=O)N4CCC(CC(=O)O)CC4)[nH]c3n2)cn1 [compound 50, (1-{[2-(1-Methyl-1H-pyrazol-4-yl)-6-(morpholin-4-yl)-9H-purin-8-yl]carbonyl}piperidin-4-yl)acetic acid]	205

Further molecules by falling IC50, results first:

IC50 [nM]	SMILES
230	CC(C)n1cc(-c2nc(N3CCOCC3)c3nc(C(=O)N4CCC(N5CCOCC5)CC4)[nH]c3n2)cn1 [compound 18, [4-(Morpholin-4-yl)piperidin-1-yl]{6-(morpholin-4-yl)-2-[1-(propan-2-yl)-1H-pyrazol-4-yl]-9H-purin-8-yl}methanone]
163	Cn1cc(-c2nc3[nH]c(C(=O)N4CCC(N5CCOCC5)CC4)nc3c(N3CCOCC3)c2Cl)cn1 [compound 92, [6-Chloro-5-(1-methyl-1H-pyrazol-4-yl)-7-(morpholin-4-yl)-3H-imidazo[4,5-b]pyridin-2-yl][4-(morpholin-4-yl)piperidin-1-yl]methanone]
159	CN(CCN1CCOCC1)C(=O)c1nc2c(N3CCOCC3)nc(-c3cnn(C)c3)nc2[nH]1 [compound 60, N-methyl-2-(1-methyl-1H-pyrazol-4-yl)-6-(morpholin-4-yl)-N-[2-(morpholin-4-yl)ethyl]-9H-purine-8-carboxamide]
88	Cn1cc(-c2nc(N3CCOCC3)c3nc(C(=O)N4CCC[C@H](N5CCOCC5)C4)[nH]c3n2)cn1 [compound 13, [2-(1-Methyl-1H-pyrazol-4-yl)-6-(morpholin-4-yl)-9H-purin-8-yl][(3S)-3-(morpholin-4-yl)piperidin-1-yl]methanone]
88	Cn1cc(-c2nc(N3CCOCC3)c3nc(C(=O)N4CCCCC4)[nH]c3n2)cn1 [compound 53, [2-(1-Methyl-1H-pyrazol-4-yl)-6-(morpholin-4-yl)-9H-purin-8-yl](piperidin-1-yl)methanone]
32	Cn1cc(-c2nc3[nH]c(C(=O)NCCN4CCOCC4)nc3c(N3CCOCC3)c2F)cn1 [compound 105, 6-Fluoro-5-(1-methyl-1H-pyrazol-4-yl)-7-(morpholin-4-yl)-N-[2-(morpholin-4-yl)ethyl]-3H-imidazo[4,5-b]pyridine-2-carboxamide]
19	Cn1cc(-c2cc(N3CCOCC3)c3nc(C(=O)N4CCN(C5CCOCC5)CC4)[nH]c3n2)cn1 [compound 135, [5-(1-Methyl-1H-pyrazol-4-yl)-7-(morpholin-4-yl)-3H-imidazo[4,5-b]pyridin-2-yl][4-(tetrahydro-2H-pyran-4-yl)piperazin-1-yl]methanone]
17	Cn1cc(-c2nc3[nH]c(C(=O)NCCCN4CCOCC4)nc3c(N3CCOCC3)c2F)cn1 [compound 124, 6-Fluoro-5-(1-methyl-1H-pyrazol-4-yl)-7-(morpholin-4-yl)-N-[3-(morpholin-4-yl)propyl]-3H-imidazo[4,5-b]pyridine-2-carboxamide]
4	O=C(c1nc2c(N3CCOCC3)c(F)c(-c3c[nH]nc3C(F)(F)F)nc2[nH]1)N1CCC(N2CCOCC2)CC1 [compound 123, {6-Fluoro-7-(morpholin-4-yl)-5-[3-(trifluoromethyl)-1H-pyrazol-4-yl]-3H-imidazo[4,5-b]pyridin-2-yl}[4-(morpholin-4-yl)piperidin-1-yl]methanone]
